Test systems include 786-0 renal; BT-549 breast; CAKI-1 renal; CCRF-CEM leukemia; EKVX NSCLC; HOP-62 NSCLC; HS 578T breast; M14 melanoma; MALME-3M melanoma; MDA-N; MOLT-4 leukemia; OVCAR-4 ovarian; PC-3 prostate; RPMI-8226 leukemia; SF-295 CNS; SF-539 CNS; SK-MEL-5 melanoma; SW-620 colon; UACC-257 melanoma; SK-MEL-2 melanoma.
Assay in all cases: DTP human tumour cell line panel, 48 h

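Each compound was tested at five concentrations against cells in 96-well plates for 48 hours. TGI denotes the concentration required for complete inhibition of growth.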 Where only a bound is given, the exact number is not on record here.

For orientation: TGI means the concentration at which net growth stops. Higher therefore signals less potent growth arrest. Consider `NNC(=O)c1cc([N+](=O)[O-])ccc1NC(=O)C12CC3CC(CC(C3)C1)C2`, for which the total growth inhibition concentration (TGI) in the experiment with 786-0 renal was above 100 µM; in the experiment on BT-549 breast it was above 100 µM; in the experiment on CAKI-1 renal it was above 100 µM; with CCRF-CEM leukemia, 24.9 µM; with EKVX NSCLC, above 100 µM; in the experiment on HOP-62 NSCLC it was above 100 µM. Also, the TGI was 28.8 µM in the experiment with HS 578T breast; above 100 µM in the experiment with M14 melanoma; 56.1 µM with MALME-3M melanoma; above 100 µM in the experiment on MDA-N; above 100 µM in the experiment with MOLT-4 leukemia; 23 µM with OVCAR-4 ovarian. Further, the concentration for total growth inhibition (TGI) in the experiment with PC-3 prostate is above 100 µM; in the experiment on RPMI-8226 leukemia, 35.8 µM; with SF-295 CNS it was 63 µM; with SF-539 CNS, 50.1 µM; in the experiment with SK-MEL-5 melanoma, above 100 µM; in the experiment on SW-620 colon it was above 100 µM. The TGI with UACC-257 melanoma turned out to be 59.3 µM.

For `CC(=O)N1C(CCc2ccccc2)CC(C)(C=O)C1Cc1ccc(O[Si](C(C)C)(C(C)C)C(C)C)cc1` (stereo not drawn), the concentration for total growth inhibition (TGI) was 6.43 µM in the experiment on 786-0 renal; 29.7 µM with BT-549 breast; 11.2 µM with CAKI-1 renal; 15.8 µM in the experiment with EKVX NSCLC; 25.9 µM in the experiment on HOP-62 NSCLC; 8.96 µM in the experiment with HS 578T breast. Further, the TGI in the experiment on M14 melanoma was 4.49 µM; with MALME-3M melanoma, 27.3 µM; in the experiment on MDA-N, 6.4 µM; in the experiment on MOLT-4 leukemia, above 21.5 µM; with OVCAR-4 ovarian, 16.8 µM; in the experiment on PC-3 prostate, 12.8 µM. Further, the concentration for total growth inhibition (TGI) in the experiment with RPMI-8226 leukemia was 5.03 µM; with SF-295 CNS, 19.6 µM; with SF-539 CNS it was 6.03 µM; in the experiment with SK-MEL-2 melanoma it was 8.02 µM; with SK-MEL-5 melanoma, 7.64 µM; in the experiment with SW-620 colon, 14.4 µM. In addition, the total growth inhibition concentration (TGI) with UACC-257 melanoma worked out at 10.6 µM.

In the case of `CC(C)(C)n1c(=O)n(-c2ccccc2)n(C(C)(C)C)c1=O`, the TGI with 786-0 renal, in the experiment with BT-549 breast, in the experiment on CAKI-1 renal, with CCRF-CEM leukemia, with EKVX NSCLC and with HOP-62 NSCLC was above 100 µM each time. In addition, the TGI in the experiment on HS 578T breast, in the experiment on M14 melanoma, with MALME-3M melanoma, with MDA-N, with MOLT-4 leukemia and with OVCAR-4 ovarian was above 100 µM in each case. The TGI in the experiment on PC-3 prostate, in the experiment with SF-295 CNS, in the experiment on SF-539 CNS, in the experiment on SK-MEL-2 melanoma, in the experiment with SK-MEL-5 melanoma and in the experiment on SW-620 colon was above 100 µM throughout. The compound also had a concentration for total growth inhibition (TGI) with UACC-257 melanoma above 100 µM.

With `O=C(Cn1c(C(=O)/C=C/c2ccc(Cl)cc2)nc2ccccc21)c1ccc(Cl)cc1`, the TGI worked out at 66.8 µM with 786-0 renal; 55.2 µM with BT-549 breast; 8.45 µM with CCRF-CEM leukemia; 64.5 µM in the experiment on EKVX NSCLC; 41.6 µM with HOP-62 NSCLC; 29.1 µM in the experiment on HS 578T breast. The TGI in the experiment on M14 melanoma was 43.6 µM; in the experiment on MALME-3M melanoma it was 52.6 µM; with MDA-N it was 61 µM; in the experiment with MOLT-4 leukemia, 14.5 µM; with OVCAR-4 ovarian, 50.7 µM; in the experiment on PC-3 prostate, above 100 µM. In addition, the total growth inhibition concentration (TGI) in the experiment with RPMI-8226 leukemia is 49.7 µM; in the experiment with SF-539 CNS it was 38.6 µM; with SK-MEL-2 melanoma, 39.5 µM; in the experiment on SK-MEL-5 melanoma, 29.3 µM; with SW-620 colon it was above 100 µM; in the experiment on UACC-257 melanoma it was 68.2 µM.

Consider `O=C(/C=C/c1ccccc1)c1cc(C(=O)/C=C/c2ccccc2)c(O)cc1O`, for which the TGI is above 100 µM in the experiment on 786-0 renal; above 100 µM with BT-549 breast; above 100 µM in the experiment on CAKI-1 renal; above 100 µM in the experiment on EKVX NSCLC; above 100 µM in the experiment on HOP-62 NSCLC; 83.7 µM in the experiment on HS 578T breast. Besides, the TGI in the experiment with M14 melanoma, in the experiment with MALME-3M melanoma, with MDA-N, in the experiment on MOLT-4 leukemia, in the experiment with PC-3 prostate and in the experiment on RPMI-8226 leukemia was above 100 µM in each case. In addition, the total growth inhibition concentration (TGI) in the experiment with SF-539 CNS, in the experiment on SK-MEL-2 melanoma, in the experiment on SK-MEL-5 melanoma, in the experiment on SW-620 colon and in the experiment with UACC-257 melanoma was above 100 µM each time.

Turning to `O=[N+]([O-])c1cccc(-c2cn3c(n2)Cc2ccccc2C3)c1`, the TGI in the experiment on 786-0 renal was above 100 µM; in the experiment on BT-549 breast, above 100 µM; in the experiment on CAKI-1 renal it was 58.2 µM; in the experiment on CCRF-CEM leukemia it was above 100 µM; in the experiment with EKVX NSCLC, above 100 µM; with HOP-62 NSCLC, above 100 µM. Also, the concentration for total growth inhibition (TGI) in the experiment with HS 578T breast, with M14 melanoma, with MALME-3M melanoma, in the experiment on MDA-N, with MOLT-4 leukemia and with OVCAR-4 ovarian was above 100 µM each time. Moreover, the TGI with PC-3 prostate, in the experiment with SF-295 CNS, in the experiment on SF-539 CNS, in the experiment with SK-MEL-2 melanoma, with SK-MEL-5 melanoma and with SW-620 colon was above 100 µM each time. This compound displayed a TGI in the experiment on UACC-257 melanoma above 100 µM.

Take `CC1=NN(C(=O)CC(=O)NC(=O)/C=C\c2ccccc2)C(=O)C1N=Nc1ccc([N+](=O)[O-])cc1` (stereo not drawn): the total growth inhibition concentration (TGI) in the experiment with 786-0 renal was above 100 µM; in the experiment with BT-549 breast, 83.5 µM; in the experiment with CAKI-1 renal, above 100 µM; with CCRF-CEM leukemia, above 100 µM; with EKVX NSCLC, above 100 µM; in the experiment on HOP-62 NSCLC, above 100 µM. Besides, the TGI with HS 578T breast, in the experiment on M14 melanoma, in the experiment on MALME-3M melanoma, with MDA-N, with MOLT-4 leukemia and with PC-3 prostate was above 100 µM throughout. Further, the concentration for total growth inhibition (TGI) in the experiment on RPMI-8226 leukemia, in the experiment with SF-295 CNS, in the experiment on SF-539 CNS and with SW-620 colon was above 100 µM in each case.

With `O=c1[nH]c2ccc(Cl)cc2o1`, the TGI with 786-0 renal, in the experiment on BT-549 breast, with CAKI-1 renal, in the experiment with CCRF-CEM leukemia, in the experiment on EKVX NSCLC and in the experiment with HOP-62 NSCLC was above 100 µM each time. Besides, the TGI in the experiment with HS 578T breast, with M14 melanoma, in the experiment on MALME-3M melanoma, in the experiment with MDA-N, with MOLT-4 leukemia and with OVCAR-4 ovarian was above 100 µM each time. The TGI in the experiment with PC-3 prostate, with RPMI-8226 leukemia, with SF-295 CNS, in the experiment with SF-539 CNS, in the experiment on SK-MEL-5 melanoma and in the experiment on SW-620 colon was above 100 µM each time. This compound gave a TGI with UACC-257 melanoma above 100 µM.

Consider `CN(/N=C/C=N/N(C)C1=NCCCN1)C1=NCCCN1`, for which the TGI in the experiment on 786-0 renal, in the experiment on BT-549 breast, with CAKI-1 renal, with CCRF-CEM leukemia, with EKVX NSCLC and with HOP-62 NSCLC was above 100 µM throughout. In addition, the TGI in the experiment on HS 578T breast, with M14 melanoma, with MALME-3M melanoma, in the experiment on MDA-N, with MOLT-4 leukemia and in the experiment with OVCAR-4 ovarian was above 100 µM throughout. The TGI in the experiment on PC-3 prostate, with SF-295 CNS, in the experiment with SF-539 CNS, with SK-MEL-5 melanoma, with SW-620 colon and with UACC-257 melanoma was above 100 µM in each case.

On to `Cc1cc(S(=O)(=O)NC2=NCCCN2)c(S)cc1Cl`, for which the TGI is 56.4 µM in the experiment with 786-0 renal; 36.4 µM in the experiment on BT-549 breast; above 100 µM in the experiment with CAKI-1 renal; above 100 µM in the experiment with EKVX NSCLC; above 100 µM with HOP-62 NSCLC; 86.7 µM with HS 578T breast. For the same compound, the TGI was 86.1 µM with M14 melanoma; 72.4 µM with MALME-3M melanoma; above 100 µM with MDA-N; above 100 µM in the experiment on OVCAR-4 ovarian; above 100 µM in the experiment on PC-3 prostate; above 100 µM in the experiment with SF-539 CNS. Further, the TGI in the experiment with SK-MEL-2 melanoma is 77.7 µM; in the experiment on SK-MEL-5 melanoma, 32.4 µM; in the experiment with SW-620 colon, 37.8 µM; with UACC-257 melanoma, above 100 µM.

`COc1c2cc([N+](=O)[O-])cc1CN(C(=O)C(F)(F)F)CCOCCN(C(=O)C(F)(F)F)C2`: the concentration for total growth inhibition (TGI) in the experiment with 786-0 renal, in the experiment with BT-549 breast, with CAKI-1 renal, in the experiment with CCRF-CEM leukemia, in the experiment on EKVX NSCLC and in the experiment on HOP-62 NSCLC was above 100 µM each time. The TGI in the experiment on HS 578T breast, with M14 melanoma, with MALME-3M melanoma, with MDA-N, in the experiment with MOLT-4 leukemia and in the experiment on OVCAR-4 ovarian was above 100 µM throughout. Moreover, the TGI with PC-3 prostate, in the experiment with SF-295 CNS, in the experiment on SF-539 CNS, in the experiment on SK-MEL-2 melanoma, with SK-MEL-5 melanoma and in the experiment with SW-620 colon was above 100 µM throughout. The compound also showed a TGI with UACC-257 melanoma above 100 µM.

Regarding `CC(NP(=O)(c1ccccc1)c1ccccc1)c1ccccc1` (stereo not drawn), the TGI in the experiment with 786-0 renal, in the experiment with BT-549 breast, with CAKI-1 renal, in the experiment on CCRF-CEM leukemia, in the experiment on EKVX NSCLC and with HOP-62 NSCLC was above 100 µM each time. The TGI with HS 578T breast, with M14 melanoma, with MALME-3M melanoma, with MDA-N, in the experiment on MOLT-4 leukemia and with OVCAR-4 ovarian was above 100 µM each time. For the same compound, the TGI in the experiment with PC-3 prostate, with RPMI-8226 leukemia, in the experiment with SF-295 CNS, in the experiment with SF-539 CNS, with SK-MEL-5 melanoma and with SW-620 colon was above 100 µM throughout. This compound returned a TGI with UACC-257 melanoma above 100 µM.

Values taken from PubChem BioAssay (NCI).
